In patent US20190083638A1, “NICLOSAMIDE-CONJUGATED POLYPEPTIDE NANOPARTICLES” (priority 2017, published 2019):

Key:
[1] = tested on: HCT116 human colon carcinoma cells; assay: In vitro cell proliferation (MTS assay); type: cell-based; details: HCT-116, read-out: IC50, concentration of NIC (or NIC equivalent) to inhibit proliferation of cells by 50%, HCT116, 72 hours of exposure
Experimental: HCT116 human colon carcinoma cells were purchased from American Type Culture Collection (Manassas, Va., USA) and maintained in McCoy's 5A medium supplemented with 10% fetal bovine serum (FBS, Atlanta Biologicals, Lawrenceville, Ga., USA), 200 U/ml penicillin, and 50 ng/ml streptomycin (Invitrogen, Grand island, NY, USA). Cells were grown at 37° C. in 5% CO2. The cells were plated at 5,000 cells per well into 96 well plates and treated with compounds (n=3) for 48 hours, at which point the cell proliferation was measured using the colorimetric MTS assay (Promega, Madison, Wis., USA). Values were normalized as a percentage of DMSO treated cells. The dose response data were fit with sigmoidal dose-response using Graphpad Prism.

[2] = tested on: Wnt/β-catenin signaling in HCT-116 cells; assay: Western blot of Wnt signaling (cytosolic β-catenin, c-myc, cyclin D1); type: cell-based, human; details: HCT116, western blotting
Experimental: Western blots were performed following a procedure similar to that reported previously (Osada et al., Cancer Res., 2011, 71, 4172-4182). […] After treatment, the cytosolic fraction was isolated as previously described (Chen et al., Biochemistry, 2009, 48, 10267-10274). Immunoblot was used to detect the 3-catenin, c-myc and cyclin D1 protein levels in cytosol, with β-actin immunoblots used for loading control.
Wnt signaling activity was quantified as cytosolic β-catenin level by Western blot.

in vivo = details: iv
Experimental: Blood samples were obtained 0.5 h prior to dosing and at 0.08, 0.17, 0.33, 0.67, 1.5, 4, 8, 12, 24 hours after drug administration (n=4 per time point).
Blood samples were obtained at 0.5 h prior to the dosing and at 0.08, 0.17, 0.33, 0.67, 1.5, 4, 8, 12, and 24 h after drug administration.

[3] = Dose escalation / tolerability in mice bearing subcutaneous HCT116 tumors; details: male, nude, mouse, in vivo, intravenous, 5 mg/kg BW; mice with tumors, 3 days/week for 2 weeks, tail vein infusion; read-out: maximum tolerated dose
Experimental: (§1) Controls or drugs were administered by tail vein infusion (50 μL/min) of 500 μL. […] Tumor dimensions and BW were measured 3-4 times a week, and the tumor volume was calculated according to Volume [mm^3]=length×width×depth×½.
(§2) Mice were monitored for BW loss, and euthanized upon exceeding 15% loss in BW or if their tumors grew to a volume greater than 1000 mm3. The maximum tolerated dose (MTD) was determined in mice with tumors. Cumulative survival curves were compared using Kaplan-Meier analysis, and the Sidak test, Tukey Test and Wilcoxon test were calculated using GraphPad Prism 6 software.

HCT-116 tumors = assay: Tumor inhibition in HCT-116 cell xenograft model; type: in vivo, male nude mice; details: i.v. every third day for two weeks, NIC 5 mg/kg, CP—NIC 20 mg/kg NIC-equivalent, n=8
Experimental: Prior to in vivo implantation, HCT116 cells were washed twice in Minimum Essential Media (MEM) (51200-038; Invitrogen; Carlsbad, Calif.). HCT116 cells were implanted in the right flank of male nude mice by subcutaneous injection of 1-2×10^6 cells in 50 μL. All animals were treated in accordance with National Institute of Health Guide for the Care and Use of Laboratory Animals under protocols approved by the Duke University Institutional Animal Care and Use Committee.
as §1, §2
Body-weight loss was also measured throughout the treatment of free NIC and CP—NIC conjugate. All treatments were tolerated for the period of the study (FIG. 11). […] It was hypothesized that the mechanism of action of NIC released from nanoparticles in this study is the same as free NIC as previously characterized.

[4] = Pilot study, LD50 of NIC formulated in DMA/PEG 400; design: species or system nude mice; details: nude, mouse, in vivo
[5] = tested on: tumor cell lines from multiple tumor types; details: breast, lung, prostate, ovary, blood, pancreas, colon tumor cell lines; read-out: IC50 range, inhibition of proliferation of tumor cell lines; cited from earlier work
[6] = free drug solution at 200 mg/kg BW; cited from earlier work

SMILES: O=C(Nc1ccc([N+](=O)[O-])cc1Cl)c1cc(Cl)ccc1O [NIC, Niclosamide]
- IC50 [1]: 850 nM
- levels of Wnt target proteins c-myc and cyclin D1 [2]: similarly reduced
- % AUC-inf extrapolated (AUC-last/AUC-inf) * 100 (in vivo; CD1, mouse): 0.33 ± 0.45%
- MRT inf (in vivo; CD1, mouse): 54 ± 28.8 min
- MRT last (in vivo; CD1, mouse): 54 ± 26.4 min
- Tmax (in vivo; CD1, mouse): 12 ± 10.2 min
- half-life (in vivo; CD1, mouse): 60 ± 13.2 min
- Cmax (in vivo; CD1, mouse, 128 mg/kg): 6200 ± 4230 ng/mL
- Vss (=CL × MRT; overall distrib. Volume at steay state) (in vivo; mouse): 0.7 ± 0.28 L (per kg BW)
- MTD at 2 weeks [3]: 5 mg/kg
- median survival time (HCT-116 tumors; Kaplan-Meier): 16 days
- mean tumor volume (HCT-116 tumors; ten days after start of treatment): 661 mm3
- LD50 [4]: 5 mg/kg
- IC50 [5]: 130 to 4000 nM
- time plasma levels of NIC were above the IC50 for Wnt inhibition [6]: less than 1 h
